pIC50: −log10 of the molar value.
Legend:
OCI-Ly10 [1] = assay: Antitumor activity against human OCILY10 cells xenografted in SCID mouse assessed as tumor growth inhibition at 10 mg/kg, po qd measured after 17 days relative to control; format: functional; design: scale not given: the % may be the effect or the level left; settings: time 17 day
TMD8 = assay: cells; settings: Homo sapiens
cells = settings: Homo sapiens, MINO
[2] = Dose normalized AUC (0 to t) in Sprague-Dawley rat at 10 mg/kg, po administered as cassette dose measured upto 24 hrs by LC-MS analysis; format: ADME, organism-based; settings: in vivo
[3] = AUC (0 to t) in Sprague-Dawley rat at 10 mg/kg, po administered as cassette dose measured upto 24 hrs by LC-MS analysis; format: ADME, organism-based; design: dose 10 mg/kg, time < 24 hrs, route po; settings: in vivo
[4] = Tmax in Sprague-Dawley rat at 10 mg/kg, po administered as cassette dose measured upto 24 hrs by LC-MS analysis; format: ADME, organism-based; settings: in vivo
MM1.S = assay: cells; settings: Homo sapiens
JeKo-1 [5] = assay: cells; settings: Homo sapiens
[6] = Tmax in ICR mouse at 20 mg/kg, po administered as single dose measured upto 48 hrs by LC-MS analysis; format: ADME, organism-based; settings: in vivo
[7] = Cmax in Sprague-Dawley rat at 10 mg/kg, po administered as cassette dose measured upto 24 hrs by LC-MS analysis; format: ADME, organism-based; design: time < 24 hrs, dose 10 mg/kg, route po; settings: in vivo
JeKo-1 [8] = assay: cells; settings: Homo sapiens; remark: listed apart in the source
[9] = Half life in ICR mouse at 20 mg/kg, po administered as single dose measured upto 48 hrs by LC-MS analysis; format: ADME, organism-based; settings: in vivo
[10] = target: Tyrosine-protein kinase BTK (Mus musculus) (UniProt P35991); assay: In vivo induction of BTK degradation in ICR mouse monocytes at 20 mg/kg, po after 8 hrs by Western blot analysis relative to control; format: functional, organism-based; settings: Monocyte
Sequence of Tyrosine-protein kinase BTK (Mus musculus) (P35991 whole entry): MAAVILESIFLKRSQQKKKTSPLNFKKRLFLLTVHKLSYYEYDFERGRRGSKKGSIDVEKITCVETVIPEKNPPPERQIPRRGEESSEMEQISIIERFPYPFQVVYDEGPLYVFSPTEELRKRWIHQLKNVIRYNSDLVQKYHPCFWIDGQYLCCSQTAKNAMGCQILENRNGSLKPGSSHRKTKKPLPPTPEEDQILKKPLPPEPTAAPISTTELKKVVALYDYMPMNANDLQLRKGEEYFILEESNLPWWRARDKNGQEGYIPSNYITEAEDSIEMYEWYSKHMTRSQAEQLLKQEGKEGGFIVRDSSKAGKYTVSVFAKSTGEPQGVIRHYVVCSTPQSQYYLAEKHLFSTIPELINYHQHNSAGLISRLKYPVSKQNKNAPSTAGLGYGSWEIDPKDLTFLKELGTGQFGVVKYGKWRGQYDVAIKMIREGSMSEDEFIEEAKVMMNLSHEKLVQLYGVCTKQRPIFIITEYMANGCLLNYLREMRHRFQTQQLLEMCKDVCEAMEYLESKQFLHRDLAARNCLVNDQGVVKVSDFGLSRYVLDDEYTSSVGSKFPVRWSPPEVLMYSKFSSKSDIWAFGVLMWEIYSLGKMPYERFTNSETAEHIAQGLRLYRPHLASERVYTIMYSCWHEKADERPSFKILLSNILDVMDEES

[11] = target: T1, Tyrosine-protein kinase BTK (Homo sapiens, UniProt Q06187); assay: Inhibition of BTK (unknown origin)
T1 sequence (Q06187 whole entry): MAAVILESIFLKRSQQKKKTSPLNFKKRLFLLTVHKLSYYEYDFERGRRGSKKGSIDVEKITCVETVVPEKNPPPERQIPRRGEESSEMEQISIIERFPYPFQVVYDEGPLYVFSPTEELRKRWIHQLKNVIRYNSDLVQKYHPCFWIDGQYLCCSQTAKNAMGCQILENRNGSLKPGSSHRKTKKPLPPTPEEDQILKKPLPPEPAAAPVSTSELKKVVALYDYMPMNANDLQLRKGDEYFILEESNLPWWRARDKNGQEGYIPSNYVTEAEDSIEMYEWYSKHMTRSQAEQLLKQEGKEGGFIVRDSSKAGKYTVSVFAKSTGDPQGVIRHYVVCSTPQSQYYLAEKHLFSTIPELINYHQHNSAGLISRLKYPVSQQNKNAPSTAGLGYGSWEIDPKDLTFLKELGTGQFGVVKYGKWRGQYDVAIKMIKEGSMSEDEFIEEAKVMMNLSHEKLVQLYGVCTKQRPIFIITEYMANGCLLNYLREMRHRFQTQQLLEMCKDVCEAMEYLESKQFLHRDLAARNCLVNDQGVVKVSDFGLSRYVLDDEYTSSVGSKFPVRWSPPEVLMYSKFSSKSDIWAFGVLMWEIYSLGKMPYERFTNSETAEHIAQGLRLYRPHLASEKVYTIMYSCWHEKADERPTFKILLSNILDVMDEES

[12] = AUC (0 to infinity) in ICR mouse at 20 mg/kg, po administered as single dose measured upto 48 hrs by LC-MS analysis; format: ADME, organism-based; design: dose 20 mg/kg, time < 48 hrs, route po; settings: in vivo
OCI-Ly10 [13] = assay: cells; settings: Homo sapiens
[14] = Half life in Sprague-Dawley rat at 10 mg/kg, po administered as cassette dose measured upto 24 hrs by LC-MS analysis; format: ADME, organism-based; settings: in vivo
[15] = target: T1, Tyrosine-protein kinase BTK; assay: Induction of BTK degradation in human MINO cells incubated for 24 hrs by Western blot analysis; format: cell-based; settings: dose 1-1000 nM, DDE = dose-dependent effect
[16] = Cmax in ICR mouse at 20 mg/kg, po administered as single dose measured upto 48 hrs by LC-MS analysis; format: ADME, organism-based; design: dose 20 mg/kg, time < 48 hrs, route po; settings: in vivo
[17] = AUC (0 to t) in ICR mouse at 20 mg/kg, po administered as single dose measured upto 48 hrs by LC-MS analysis; format: ADME, organism-based; design: dose 20 mg/kg, time < 48 hrs, route po; settings: in vivo

| pIC50 (TMD8) | pIC50 (cells) | AUCt/dose [2] [ng·h/mL/mg] | AUC(0-t) at 24 h [3] [ng·h/mL] | Tmax [4] [h] | pIC50 (MM1.S) | pIC50 (JeKo-1 [5]) | Tmax [6] [h] | Cmax [7] [ng/mL] | pIC50 (JeKo-1 [8]) | half-life [9] [h] | Activity [10] [%] | pIC50 [11] | AUC(0-inf) [12] [ng·h/mL] | pIC50 (OCI-Ly10 [13]) | half-life [14] [h] | Activity [15] | Cmax [16] [ng/mL] | AUC(0-t) at 48 h [17] [ng·h/mL] | Compound | Activity (OCI-Ly10 [1]) [%] |
| --- | --- | --- | --- | --- | --- | --- | --- | --- | --- | --- | --- | --- | --- | --- | --- | --- | --- | --- | --- | --- |
|  |  |  |  |  |  |  |  |  |  |  |  |  |  |  |  |  |  |  | C=CC(=O)N1CCC[C@@H](n2nc(-c3ccc(Oc4ccccc4)cc3)c3c(N)ncnc32)C1 [IBRUTINIB] | 50.7 |
| 6.97 | 6.10 | 215 | 21.5 | 0.7 | < 4.70 | 5.18 | 0.3 | 461 | 4.70 | 5.3 | 16.5 | 7.61 | 55 | 7.40 | 7.9 | Dde | 20 | 39 | Nc1ncnc2c1c(-c1ccc(Oc3ccccc3)cc1)nn2[C@@H]1CCCN(C(=O)CC(=O)NCC#CCN2CCN(CC#Cc3ccc4c(c3)CN(C3CCC(=O)NC3=O)C4=O)CC2)C1 (some centres undefined) |  |
| 7.79 | 6.91 | 29 | 288 | 0.7 | 5.72 | 6.08 | 0.5 | 84 | 4.94 | 2.6 | 37.2 | 8.20 | 404 | 7.89 | 6.5 | Dde | 224 | 374 | Nc1ncnc2c1c(-c1ccc(Oc3ccccc3)cc1)nn2[C@@H]1CCCN(C(=O)CCC(=O)N2CCN(CC#Cc3ccc4c(c3)CN(C3CCC(=O)NC3=O)C4=O)CC2)C1 (some centres undefined) |  |
